From paper PMC11062903, “Discovery of potent inhibitors of α-synuclein aggregation using structure-based iterative learning” (Nature Chemical Biology, 2024)
“Also recorded” adds a separate entry of the source. Read-outs that look alike come from different tables or passages of the source.

Columns and labels:
[1] = target: T1, αS aggregation (surface-catalyzed secondary nucleation) (Homo sapiens, UniProt P37840); assay: light seeded αS aggregation chemical kinetics assay (ThT), secondary nucleation; format: biochemical
T1 construct: made in house; host or cells: E. coli BL21 (DE3)
Method: Secondary nucleation is enabled by adding a small amount of preformed fibrils to a monomeric mixture. Aggregation was tracked using the amyloid binding dye, thioflavin T (ThT).
αS was injected into a Superdex 75 10/300 GL column (GE Healthcare) at a flow rate of 0.5 ml min^−1 and eluted in 20 mM sodium phosphate buffer (pH 4.8) supplemented with 1 mM EDTA. The obtained monomer was diluted in buffer to a desired concentration and supplemented with 50 µM ThT and preformed αS fibril seeds. The molecules (or DMSO alone) were then added at the desired concentration to a final DMSO concentration of 1% (v/v). […] The assay was then initiated by placing the microplate at 37 °C under quiescent conditions in a plate reader (FLUOstar Omega, BMG Labtech). The ThT fluorescence was measured through the bottom of the plate with a 440 nm excitation filter and a 480 nm emission filter.
In the presence of low concentrations of seeds (approximately nanomolar), the fibril mass fraction, M(t), over time was described using a generalized logistic function to the normalized aggregation data[9],[70] M(t)/mtot=1−1/1+a/ce^κt^c where mtot denotes the total concentration of αS monomers. The parameters a and c are defined as a=λ^2/2κ^2 c=2/n2(n2+1). […]

αS fibrils = target: T2, αS fibrils (Homo sapiens, UniProt P37840); assay: SPR binding to immobilized αS fibrils; conditions: 1:1 kinetic binding model; for kd / kon: error s.e.m.; for kon: read-out: ka
T2 construct: made in house; host or cells: E. coli BL21 (DE3)
Method: All work was carried out using Biacore T200 at 25 °C. CM5 chips were activated by flowing 0.01 M N-hydroxysuccinimide, 0.4 M […] at a flow rate of 10 µl min^−1 for 7 min over two lanes. Preformed αS or Aβ42 fibrils (derived from the endpoints of low seeded aggregation reactions) at a concentration of 1 µM in sodium acetate (10 mM, pH 4.0) were injected onto a single lane in 60 s bursts at 5 µl min^−1 until a response of 2,000 units was reached. […] Different small molecule concentrations were then flowed over both lanes in a pyramidal arrangement in duplicate with blank subtraction (association time 3 min, dissociation time 10 min). The running buffer was sodium phosphate (20 mM, 1 mM EDTA, variable pH) with 1% DMSO. Fitting was carried out on Biacore T200 Evaluation Software, version 3.2, using a 1:1 binding model with the refractive index set to a constant value of 0 response units.

Aβ42 fibrils = target: T3, Aβ42 fibrils (Homo sapiens, UniProt P05067); assay: SPR binding to immobilized Aβ42 fibrils; conditions: pH 8
T3 construct: The recombinant Aβ42 peptide ([…] […] […] […] IA), here called Aβ42; made in house; host or cells: Escherichia coli BL21 Gold (DE3)
Method: (§1) Solutions of monomeric Aβ42 were prepared by dissolving the lyophilized Aβ42 peptide in 6 M guanidinium hydrocholoride (GuHCl). Monomeric forms were purified from potential oligomeric species and salt using a Superdex 75 10/300 GL column (GE Healthcare) at a flow rate of 0.5 ml min^−1, and were eluted in 20 mM sodium phosphate buffer, pH 8 supplemented with 200 µM EDTA and 0.02% NaN3. The center of the peak was collected and the peptide concentration was determined from the absorbance of the integrated peak area using ε280 = 1,490 l mol^−1 cm^−1. The obtained monomer was diluted with buffer to the desired concentration and supplemented with 20 μM ThT from a 2 mM stock. Each sample was then pipetted into multiple wells of a 96-well half-area, low-binding, clear-bottom and polyethylene glycol-coated plate (Corning 3881), 80 µl per well, in the absence and the presence of different molar-equivalents of small molecules (1% DMSO). Assays were initiated by placing the 96-well plate at 37 °C under quiescent conditions in a plate reader (Fluostar Omega, Fluostar Optima or Fluostar Galaxy, BMGLabtech). The ThT fluorescence was measured through the bottom of the plate using a 440 nm excitation filter and a 480 nm emission filter. Fibrils were extracted directly from wells and used on the day for SPR experiments.
All work was carried out using Biacore T200 at 25 °C. […]

[2] = target: T4, Aβ42 secondary nucleation (Homo sapiens, UniProt P05067); assay: seeded Aβ42 aggregation kinetics (ThT); format: biochemical; conditions: 2 μM Aβ42, 40 nM seed, pH 8
T4 construct: The recombinant Aβ42 peptide ([…] […] […] […] IA), here called Aβ42; made in house; host or cells: Escherichia coli BL21 Gold (DE3)
Method: as §1

[3] = target: T1, αS aggregation (surface-catalyzed secondary nucleation); set-up: method as in PMID 36374974; conditions: cited from earlier work

T4 sequence (P05067 671-713): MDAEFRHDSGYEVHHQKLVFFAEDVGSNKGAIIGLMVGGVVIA
T3 sequence (P05067 671-713): as above

| IC50 ([1]; extrapolated from Hill fit of 1/t1/2, read-out: extrapolated KIC50) | Compound | IC50 ([1]; 1/t1/2 fitted to a Hill slope, 10 µM αS, 25 nM seeds, pH 4.8, 37 °C, read-out: KIC50 (concentration at which t1/2 is increased by 50% with respect to the control)) | Kd (αS fibrils; pH 4.8) | kd (αS fibrils; pH 4.8) | kon (αS fibrils; pH 4.8) | Kd (αS fibrils; pH 8) | kd (αS fibrils; pH 8) | kon (αS fibrils; pH 8) | binding to Aβ42 fibrils (Aβ42 fibrils) | effect on seeded aggregation of Aβ42 [2] | activity in aggregation assays (docking set) [3] |
| --- | --- | --- | --- | --- | --- | --- | --- | --- | --- | --- | --- |
| – | O=C1NN(c2ccc(F)cc2)C(=O)/C1=C/c1ccc(-c2ccc(Cl)c(C(=O)O)c2)o1 [I4.05] | 520 nM | 68 nM | 1.315 ± 0.003 × 10^−2 s^−1 | 194000 ± 7e+07 M⁻¹ s⁻¹ | 13 nM | 0.781 ± 0.002 × 10^−2 s^−1 | 588000 ± 2.4e+08 M⁻¹ s⁻¹ | unable to effectively inhibit Aβ42 secondary nucleation or bind to Aβ42 fibrils; also recorded: nor does it bind effectively to Aβ42 fibrils | unable to effectively inhibit Aβ42 secondary nucleation; also recorded: no effect | – |
| – | Cc1c(OCc2nnn[nH]2)ccc2c1oc(=O)c1ccccc12 [molecule 48] | – | – | – | – | – | – | – | – | – | active |
| 18200 nM | O=C1NN(c2ccccc2)C(=O)C1=Cc1coc2ccccc2c1=O [molecule 69] | – | – | – | – | – | – | – | – | – | active |
